Several values for one entry are separate records, joined by “and”; a condition that tells them apart may be missing. Equal values may be shown once.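 The compound was tested at five concentrations on cells cultured in 96-well plates, with a 48-hour exposure period. GI50: concentration for 50% inhibition of growth. TGI is the concentration that stops growth completely.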

For eleven molecules, TGI and GI50 results are on record in PubChem BioAssay (NCI).

Some test systems named below: HL-60(TB) leukemia; MDA-MB-435; NCI/ADR-RES ovarian; OVCAR-8 ovarian; IGROV1 ovarian; HOP-92 NSCLC; HCC-2998 colon; HS 578T breast; DLD-1 colon; KM20L2 colon.
Common to all, as to assay: inhibition of tumour cell growth, NCI panel, 48 h

With `Cc1cn(C2CC(N=[N+]=[N-])C(CO)O2)c(=O)[nH]c1=O` (stereo unspecified), the TGI with HL-60(TB) leukemia, with MDA-MB-435, in the experiment with NCI/ADR-RES ovarian, in the experiment with OVCAR-8 ovarian, with IGROV1 ovarian and in the experiment on HOP-92 NSCLC was more than 1000 µM throughout. Besides, the TGI in the experiment on HCC-2998 colon and in the experiment on HS 578T breast was more than 1000 µM each time. Besides, the GI50 with NCI/ADR-RES ovarian was 296 µM; in the experiment with IGROV1 ovarian it was more than 1000 µM; in the experiment with HOP-92 NSCLC, more than 1000 µM; in the experiment on HCC-2998 colon, more than 1000 µM.
In the case of `CC[C@@]1(OC(=O)C(N)CCC(=O)O)C(=O)OCc2c1cc1n(c2=O)Cc2cc3ccccc3nc2-1` (stereo partly specified), the TGI with HL-60(TB) leukemia was 0.508 µM; in the experiment on NCI/ADR-RES ovarian, 0.297 µM; in the experiment on OVCAR-8 ovarian, 10.7 µM; in the experiment on IGROV1 ovarian it was 4.35 µM; with HOP-92 NSCLC, 1.57 µM; with HCC-2998 colon, 3.02 µM. Further, the TGI with HS 578T breast is more than 100 µM; with DLD-1 colon, more than 100 µM; in the experiment with KM20L2 colon, 5.08 µM.
For `O=S1c2ccccc2N=C(c2ccc3ccccc3c2)CC1c1ccccc1F` (stereo unspecified), the TGI in the experiment on HL-60(TB) leukemia, in the experiment on OVCAR-8 ovarian, in the experiment on IGROV1 ovarian, with HCC-2998 colon, in the experiment on DLD-1 colon and with KM20L2 colon was more than 100 µM each time.
In the case of `COc1cccc(C(C#N)NC23CC4CC(CC(C4)C2)C3)c1` (stereo unspecified), the TGI in the experiment on HL-60(TB) leukemia, in the experiment on MDA-MB-435, in the experiment on NCI/ADR-RES ovarian, in the experiment on OVCAR-8 ovarian, in the experiment with IGROV1 ovarian and with HOP-92 NSCLC was more than 100 µM in each case. The TGI in the experiment with HCC-2998 colon and in the experiment with HS 578T breast was more than 100 µM in each case.
Turning to `CC(N)CN.CC(N)CN.[Cl-].[O]=[Os+2]=[O]` (stereo unspecified), the GI50 was 96.2 µM in the experiment on OVCAR-8 ovarian; more than 100 µM in the experiment on IGROV1 ovarian; more than 100 µM with HCC-2998 colon; more than 100 µM in the experiment with DLD-1 colon; 89.6 µM in the experiment on KM20L2 colon. In addition, the TGI in the experiment with OVCAR-8 ovarian, with IGROV1 ovarian, in the experiment on HCC-2998 colon, with DLD-1 colon and in the experiment on KM20L2 colon was more than 100 µM in each case.
On to `O=C1c2ccccc2C(=O)c2c(NCCNCCO)ccc(NCCNCCO)c21`, for which the GI50 in the experiment on HL-60(TB) leukemia is 0.274 µM and 0.13 µM and 0.456 µM; in the experiment with MDA-MB-435, 2.43 µM and 3.09 µM and 1.95 µM; with NCI/ADR-RES ovarian it was 42.8 µM and 99.2 µM and > 100 µM; in the experiment on OVCAR-8 ovarian, 0.349 µM and 0.718 µM and 0.821 µM; in the experiment on IGROV1 ovarian, 1.14 µM and 0.55 µM and 0.811 µM; in the experiment with HOP-92 NSCLC, 0.289 µM and 0.508 µM and 0.227 µM. Besides, the GI50 was 1.39 µM and 1.95 µM and 2.18 µM in the experiment with HCC-2998 colon; 0.333 µM and 0.208 µM and 1.22 µM in the experiment on HS 578T breast. Besides, the TGI in the experiment on HL-60(TB) leukemia is 8.67 µM and 10.6 µM; in the experiment with MDA-MB-435, 7.22 µM and 13.2 µM and 6.06 µM; in the experiment on NCI/ADR-RES ovarian it was more than 100 µM; in the experiment on OVCAR-8 ovarian it was 6.5 µM and 6.81 µM and 6.08 µM; in the experiment with IGROV1 ovarian, 10.3 µM and 9.84 µM; in the experiment with HOP-92 NSCLC, 4.94 µM and 5.08 µM and 2.08 µM. The TGI was 3.78 µM and 7.83 µM and 7.03 µM with HCC-2998 colon; 2.49 µM and 4.02 µM and 5.69 µM in the experiment on HS 578T breast.
On to `O=C(CCCCCNC1=CC(=O)c2ccccc2C1=O)NCCC[Te]c1ccccc1`, for which the GI50 with HL-60(TB) leukemia was 0.315 µM; with MDA-MB-435, 1.92 µM; in the experiment with NCI/ADR-RES ovarian it was 0.425 µM; in the experiment on OVCAR-8 ovarian, 0.446 µM; with IGROV1 ovarian it was 0.518 µM; in the experiment with HOP-92 NSCLC, 0.583 µM. For the same molecule, the GI50 in the experiment on HCC-2998 colon was 0.798 µM; in the experiment with HS 578T breast it was 0.364 µM. Also, the TGI with HL-60(TB) leukemia stood at 4.4 µM; with MDA-MB-435, 4.67 µM; with NCI/ADR-RES ovarian, 4.62 µM; in the experiment on IGROV1 ovarian, 1.89 µM; in the experiment with HOP-92 NSCLC it was 1.65 µM; in the experiment with HCC-2998 colon, 2.44 µM. This molecule displayed a TGI with HS 578T breast of 2.65 µM.
Take `Nc1ncnc2c1nc(N)n2C1OC(CO)C(O)C1O` (stereo unspecified): the GI50 was 0.376 µM in the experiment on HL-60(TB) leukemia; 0.153 µM in the experiment with MDA-MB-435; 0.697 µM with NCI/ADR-RES ovarian; 0.63 µM in the experiment with OVCAR-8 ovarian; 0.238 µM in the experiment on IGROV1 ovarian; 0.34 µM in the experiment on HOP-92 NSCLC. For the same molecule, the values for the GI50 in the experiment with HCC-2998 colon and in the experiment on HS 578T breast were 0.32 µM and 2.45 µM, respectively. Moreover, the TGI stood at 3.67 µM in the experiment on HL-60(TB) leukemia; 0.773 µM with MDA-MB-435; 3.29 µM in the experiment on NCI/ADR-RES ovarian; 2.98 µM with OVCAR-8 ovarian; 0.863 µM in the experiment on IGROV1 ovarian; 1.83 µM in the experiment on HOP-92 NSCLC. For the same molecule, the TGI was 1.66 µM with HCC-2998 colon and more than 28.4 µM with HS 578T breast.
Turning to `CS(=O)/C(C#N)=C\C=C\c1cccc(Cl)c1` (stereo unspecified), the GI50 is 2.38 µM in the experiment on HL-60(TB) leukemia; 2.34 µM in the experiment with MDA-MB-435; 2.66 µM in the experiment on NCI/ADR-RES ovarian; 3.78 µM with OVCAR-8 ovarian; 2.08 µM in the experiment on IGROV1 ovarian; 2.93 µM in the experiment on HOP-92 NSCLC. For the same molecule, the GI50 in the experiment with HCC-2998 colon was 1.8 µM; in the experiment on HS 578T breast, 13.1 µM. Further, the TGI in the experiment with HL-60(TB) leukemia turned out to be 7.61 µM; in the experiment on MDA-MB-435 it was 10.6 µM; with NCI/ADR-RES ovarian it was 37.7 µM; with OVCAR-8 ovarian, 17.9 µM; in the experiment with IGROV1 ovarian it was 10.3 µM; in the experiment with HOP-92 NSCLC, 7 µM. Moreover, the TGI in the experiment on HCC-2998 colon worked out at 3.3 µM; in the experiment on HS 578T breast, 52.6 µM.
With `O=Cc1c[nH]c2ccc(-c3csc4ccccc34)cc12`, the GI50 in the experiment on HL-60(TB) leukemia is 2.48 µM; in the experiment with MDA-MB-435 it was 1.24 µM; in the experiment with NCI/ADR-RES ovarian, 4.09 µM; in the experiment on OVCAR-8 ovarian, 3.47 µM; in the experiment on IGROV1 ovarian, 3.81 µM; in the experiment with HOP-92 NSCLC, 7.06 µM. The GI50 in the experiment with HCC-2998 colon is 15.5 µM; in the experiment with HS 578T breast, 2.3 µM. Besides, the TGI in the experiment with HL-60(TB) leukemia is 8.38 µM; in the experiment with MDA-MB-435, 3.66 µM; with NCI/ADR-RES ovarian, more than 100 µM; in the experiment on OVCAR-8 ovarian, more than 100 µM; in the experiment on IGROV1 ovarian it was 59.9 µM; in the experiment with HOP-92 NSCLC, 84.7 µM. Moreover, the TGI in the experiment on HCC-2998 colon is more than 100 µM; in the experiment with HS 578T breast it was 9.55 µM.
As to `CC(C)(C)C1CCC(CI)(N=[N+]=[N-])CC1` (stereo unspecified), the TGI in the experiment with HL-60(TB) leukemia, with OVCAR-8 ovarian, with IGROV1 ovarian, in the experiment on HOP-92 NSCLC, with HCC-2998 colon and in the experiment with DLD-1 colon was more than 100 µM throughout. For the same molecule, in the experiment with KM20L2 colon, the TGI is more than 100 µM.
